# Assay results: publication PMC6389703, “Identification of Biologically Active Ganoderma lucidum Compounds and Synthesis of Improved Derivatives That Confer Anti-cancer Activities in vitro” (Frontiers in Pharmacology, 2019)
# pEC50: −log10 of the molar value. Read-outs that look alike come from different tables or passages of the source.
# Assays:
# [1] = test system: MCF-7 cells; assay: ROS measurement (CellROX green), MCF-7; assay type: cell-based, human; conditions: for ROS formation reduction when co-treated with NAC: NAC 100 µM, TBHP 100 µM; for ROS increase (fold): GA-01, ergosterol, 5,6-dehydroergosterol 50 µM, EP 20 µM
# Experimental: (§1) SUM-149 or MDA-MB-231 were plated in 96-well plates at a density of 2 × 10^4 and 1 × 10^4 cells/well, respectively, in black 96-well clear bottom tissue culture plates and incubated for 24 h at 37°C. The mRuby-Mito-7 plasmid was obtained from Addgene (#55874 from Michael Davidson). A stable clone of MCF-7 was generated by using Fugene 6 (Roche) to transfect cells (2 × 10^5) with plasmid (2.0 μg) under neomycin selection. A stable cell line was selected by using G418 (300 μg/mL) for 2 weeks, sorted by flow cytometry, and maintained under G418 thereafter. Transfected MCF-7 cells were plated at a density of 2 × 10^4 cells/well in black 96-well clear bottom tissue culture plates and incubated overnight at 37°C. To test for ROS formation and remove background, cells were replenished with fresh PBS with 2% FBS and treated with the desired compounds for 1 h at 37°C. DMSO (0.5%) was used as a negative control, while Menadione (Mena, at 10 μM) or t-Butyl hydroperoxide (TBHP) at 100 μM final concentration were used as a positive control. To evaluate the compounds’ effects on ROS formation inhibition, the free radical scavenger N-acetyl cysteine (NAC) was used. Cells were treated with or without NAC (500 μM or 100 μM) for 1 h, then CellROX® green reagent (Molecular Probes #C10444) was added to a final concentration of 5 μM, and cells were incubated for an additional 30 min at 37°C. Cells were then washed 2× with PBS, followed by fixation with 4% paraformaldehyde (v/v) for 15 min, and 2 more washes with PBS. Fluorescence intensity was measured in a Clariostar® plate reader (BMG LABTECH, Cary, NC, United States) at 535 nm.
# [2] = test system: MDA-MB-231 cells; assay: ROS measurement (CellROX green), MDA-MB-231; assay type: cell-based, human; conditions: NAC 500 μM; menadione 10 μM
# Experimental: as §1, with “Cells were treated with or without NAC (500 μM or 100 μM) for 1 h, then CellROX® green reagent (Molecular Probes #C10444) was added to a final concentration of 5 μM, and cells were incubated for an additional 30 min at 37°C. Cells were then washed 2× with PBS, followed by fixation with 4% paraformaldehyde (v/v) for 15 min, and 2 more washes with PBS.” left out
# [3] = test system: SUM-149 cells; assay: ROS measurement (CellROX green), SUM-149; assay type: cell-based, human; conditions: NAC 500 μM; EP 20 μM, menadione 10 μM
# Experimental: as §1
# [4] = test system: BJ cells; assay: cells; assay type: cell-based
# Experimental: (§2) Either 1 × 10^3–4.8 × 10^3 or 4 × 10^2–1.2 × 10^3 cells were seeded to each well of 96- or 384-well white polystyrene flat-bottomed plates (3610 or 8804BC, Corning) in 100 μL or 30 μL media per well, respectively. The concentrations used were experimentally determined to ensure logarithmic growth during the duration of the experiment and prevent adverse effects on cell growth by DMSO exposure. The plates were incubated at 37°C in 5% CO2 for 24 h before treatment. Stock solutions of test compounds (10 mM in DMSO) in nine 3-fold serial dilutions were dispensed via pintool (Biomek). The final concentration of DMSO was 0.3% (v/v) in each well. The plates were incubated for 72 h at 37°C in 5% CO2 and then quenched with CellTiter-Glo® reagent (50 μL/well in 96-well plate, 30 μL/well in 384-well plate) at RT. The positive controls included staurosporine (10 μM), gambogic acid (10 μM), and a toxic quinoline generated in-house. Plates were then incubated at RT for 20 min and centrifuged at 1000 rpm for 1 min. The cytotoxicity assay was performed by using the CellTiter-Glo® Luminescent Cell Viability Assay kit (G7570, Promega, Madison, WI, United States) according to the manufacturer’s instructions. Luminescence was recorded in an Envision plate reader (PerkinElmer).
# (§3) For the CTG assay, 3 or 4 replicate assays were conducted for each experimental condition, and a minimum of 3 independent experiments were conducted for cellular assays. The mean luminescence of each experimental treatment group was normalized as a percentage of the mean intensity of untreated controls. EC50 values (μM) were calculated by Pipeline Pilot Software (Accelrys, Enterprise Platform, San Diego, CA, United States). EC50 values (μM) from the viability assay were calculated from dose response curve-fitting via non-linear regression by using GraphPad Prism (Version 7.0, San Diego, CA, United States). For cell viability, colony formation, cell-cycle progression, cell death, and western blot assays, the analyses were performed via one-way or two-way ANOVA with post-testing for each condition (concentration, cell cycle stage, apoptotic event, cell line) by using GraphPad Prism.
# [5] = test system: evaluated cell lines; assay: Cell viability, evaluated cell lines (palmitic acid); assay type: cell-based; conditions: tested concentration ≤100μM
# Experimental: Either 1 × 10^3–4.8 × 10^3 or 4 × 10^2–1.2 × 10^3 cells were seeded to each well of 96- or 384-well white polystyrene flat-bottomed plates (3610 or 8804BC, Corning) in 100 μL or 30 μL media per well, respectively. The concentrations used were experimentally determined to ensure logarithmic growth during the duration of the experiment and prevent adverse effects on cell growth by DMSO exposure. The plates were incubated at 37°C in 5% CO2 for 24 h before treatment. Stock solutions of test compounds (10 mM in DMSO) in nine 3-fold serial dilutions were dispensed via pintool (Biomek). The final concentration of DMSO was 0.3% (v/v) in each well. […] Luminescence was recorded in an Envision plate reader (PerkinElmer). […]
# as §3, with “For cell viability, colony formation, cell-cycle progression, cell death, and western blot assays, the analyses were performed via one-way or two-way ANOVA with post-testing for each condition (concentration, cell cycle stage, apoptotic event, cell line) by using GraphPad Prism.” left out
# [6] = test system: various breast cancer cell lines; assay: Cell viability (CellTiter-Glo or PI staining), various breast cancer cell lines; assay type: cell-based, human; conditions: for pEC50: Homo sapiens, 72-h treatment, CellTiter-Glo or PI staining
# Experimental: as §2
# (§4) Cell viability assays (MTT or PI staining assays) in SUM-149, SUM-190, MDA-MB-231, and MCF10A cells were performed as we previously described ([Suarez-Arroyo et al., 2016]).
# as §3
# [7] = test system: SUM-149 cells; assay: ApoTox-Glo Triplex assay, SUM-149; assay type: cell-based, human; conditions: SUM-149, 24 h
# Experimental: (§5) Cells (9.5 × 10^4/well in 75 μL of fresh medium) were dispensed in 96-well black flat bottom (8807BC, Corning) plates. The cells were incubated for 12 h at 37°C and then treated with compounds (25 μL) for 24 h. DMSO was used as a negative control, and staurosporine was used as the positive control. […] Then, the Caspase-Glo® 3/7 Reagent was added; plates were mixed briefly by orbital shaking (300-500 rpm for ∼30 s), followed by an additional 30 min incubation at RT. Then luminescence, which correlates with caspase 3/7 activation, was recorded with a plate reader to […] apoptosis induction.
# [8] = test system: MDA-MB-231 cells; assay: ApoTox-Glo Triplex assay, MDA-MB-231; assay type: cell-based, human; conditions: MDA-MB-231, 24 h
# Experimental: as §5
# [9] = test system: MDA-MB-231 cells; assay: De novo in-cell protein synthesis (click assay); assay type: cell-based, human; conditions: 2 h; EP 20 μM
# Experimental: First, 2.5 × 10^4 cells/well were seeded in 8-well μ-slides (Ibidi®, #80826) and incubated at 37°C for 12 h. The cells were treated with vehicle, compounds Ganoderic acid A or EP, or cycloheximide (positive control) for 2 h to determine protein synthesis as nascent proteins generated using Biovision’s EZClick^TM Global Protein Synthesis Assay Kit, (#K715-100, Milpitas, CA, United States). The assay includes a robust chemical method based on an alkyne containing o-propargyl-puromycin (OP-puro) probe, which stops translation by forming covalent conjugates with nascent polypeptide chains. Truncated polypeptides are rapidly turned over by the proteasome and can be detected based on the subsequent click reaction with a fluorescent azide. The reaction was conducted according to the manufacturer’s protocol. Cells were imaged at 20× with a Nikon C2 scanning confocal microscope, and the whole image montage was quantified by using Gen5 Software and Lionheart^TM FX Automated Microscope (BioTek, Winooski, VT, United States).
# [10] = test system: SUM-149 cells; assay: Cell viability assay, SUM-149; assay type: cell-based, human
# Experimental: as §2, §4, §3
# [11] = physchem; conditions: organic solvent or mixture
structure (smiles),measurement,setting,value
"CC(C)(C)OO [TBHP, t-Butyl hydroperoxide, reference compound]",ROS formation reduction when co-treated with NAC,[1],~50%
"CC1=CC(=O)c2ccccc2C1=O [menadione, Menadione, reference compound]",reduction in ROS formation in the presence of NAC,[2],about 20%
same,reduction in ROS formation in the presence of NAC,[3],about 20%
CCCCCCCCCCCCCCCC(=O)O [palmitic acid],pEC50,"[4]; Homo sapiens, BJ, Cell Titer Glo, 72-h treatment",< 4.00
same,activity in the evaluated cell lines,[5],did not show activity
same,activity in the evaluated cell lines,[5]; listed as Palmitic acid,No detected biological activity
"C[C@H](CC(=O)C[C@@H](C)[C@H]1C[C@H](O)[C@@]2(C)C3=C(C(=O)C[C@]12C)[C@@]1(C)CCC(=O)C(C)(C)[C@@H]1C[C@@H]3O)C(=O)O [GA-01, ganoderic acid A]",pEC50,[6],< 4.30
same,cytotoxic effects in normal BJ cells,[4]; at the concentrations tested,did not induce cytotoxic effects
same,caspase 3/7 activity,[7],increase caspase 3/7 activity
same,viability (GF-AFC),[7],decrease viability
same,caspase 3/7 activity,[8],increase caspase 3/7 activity
same,viability (GF-AFC),[8],decrease viability
same,de novo protein synthesis inhibition,[9],do not inhibit
same,ROS increase (fold),[1],at least a twofold
same,ROS formation reduction when co-treated with NAC,[1],9–25%
CC(C)C(C)C=CC(C)C1CCC2C3=CCC4CC(O)CCC4(C)C3CCC21C (stereo not shown),pEC50,[6],< 4.30
same,cytotoxic effects in normal BJ cells,[4],did not induce cytotoxic effects
same,ROS increase (fold),[1],at least a twofold
same,ROS formation reduction when co-treated with NAC,[1],9–25%
CC(C)[C@@H](C)/C=C/[C@@H](C)[C@H]1CC[C@H]2C3=CC=C4C[C@@H](O)CC[C@]4(C)[C@H]3CC[C@]12C [ergosterol],pEC50,[6],< 4.30
same,concentration from which cancer cell viability is significantly reduced,[6]; breast cancer cellular models,64 µM
same,concentration at which SUM-149 cell viability is significantly reduced,[10]; 72 h,64 µM
same,cytotoxic effects in normal BJ cells,[4],did not induce cytotoxic effects
same,ROS increase (fold),[1],at least a twofold
same,ROS formation reduction when co-treated with NAC,[1],9–25%
"CC(C)[C@@H](C)/C=C/[C@@H](C)[C@H]1CC[C@H]2C34C=CC5(C[C@@H](OC(=O)NS(=O)(=O)c6ccccc6)CC[C@]5(C)C3CC[C@]12C)OO4 (stereo partly shown) [EP sulfonamide, ergosterol peroxide sulfonamide]",pEC50,"[10]; Homo sapiens, SUM149, SUM-149, Figure 10A, read-out: EC50, cancer cell viability (derivatives)",4.92
same,cytotoxic effects in normal BJ cells,[4]; at the concentrations tested,minimal
same,solubility,[11],≥ 10 mM
